Results: article PMC6641291 (ACS Omega, 2018)

target: T1, δ^1-pyrroline-5-carboxylate reductase (P5C reductase) (Arabidopsis thaliana, UniProt P54904); test: P5C-dependent NADH oxidation, absorbance at […] nm; assay type: biochemical
T1 sequence (P54904 1-276): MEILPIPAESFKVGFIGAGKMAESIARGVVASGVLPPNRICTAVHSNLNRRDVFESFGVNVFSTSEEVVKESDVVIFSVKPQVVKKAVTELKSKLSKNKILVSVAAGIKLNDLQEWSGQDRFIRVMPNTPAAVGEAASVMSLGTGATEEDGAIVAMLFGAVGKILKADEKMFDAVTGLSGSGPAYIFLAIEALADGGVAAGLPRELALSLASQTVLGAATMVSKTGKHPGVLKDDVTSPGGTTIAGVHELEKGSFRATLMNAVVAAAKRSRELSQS

Row | SMILES | IC50 [mM]
1 | O=P(O)(O)[C@@H]1CCCN1 [(R)-1, Pyrrolidin-2-ylphosphonic Acid] | 24 ± 4
2 | O=P(O)(O)[C@@H]1CCCON1 [(R)-6, (R)-(−)-1,2-oxazinan-3-ylphosphonic acid] | 45 ± 19
3 | O=P(O)(O)[C@H]1CCCN1 [(S)-1, Pyrrolidin-2-ylphosphonic Acid] | 21 ± 2
4 | O=C(O)[C@@H]1CCCN1 [proline] | 84 ± 3
